# Columns and labels:
# [1] = Antitumor activity test, sulfonyl rhodamine B (SRB) method; format: cell-based, human; conditions: compound concentration 10^−5 M, A-549 cells cultured 72 hours, OD560
# Protocol: (§1) Antitumor activity test: Sulfonyl rhodamine B (SRB) method was used to determine the in vitro anti-tumor activity of A-549 […] cancer cells. A-549 human […] cancer cells in logarithmic growth were inoculated into a 96 well microculture plate with the amount of 90 μL/well. 24 hours later, the solutions respectively containing the compounds 1a, 1b, 1c, 1d, 1e, 1f, 1g, 1h, and 1i of the disclosure were added to the wells with each 10 μL/well, and three wells for each concentration. A cell-free zero adjustment hole was also provided. The concentrations of the compounds 1a, 1b, 1c, 1d, 1e, 1f, 1g, 1h, and 1i in corresponding solution were all 10^−5 M. The tumor cells were cultured at 37° C. under 5% CO2 for 72 hours. The culture medium was discarded, and 100 μL/well of 10% TCA was added to the cells for fixing at 4° C. for 1 hour. The cells were washed three times with distilled water, and dried naturally. 4 mg/mL SRB (Sigma) staining solution of 100 μL/well was added for staining at room temperature for 15 minutes, washed three times with 1% acetic acid aqueous solution, and dried naturally. 100 μL/well of 10 mM Tris base aqueous solution was further added. Then, the optical density (OD560) value was measured using an enzyme-linked immunosorbent assay at a wavelength of 560 nm. The inhibition rate of the tested compounds on tumor cell growth was calculated according to the formula: (control group OD value-administration group OD value)/control group OD value×100%.
# [2] = tested on: A-549 human breast cancer cells; test: as above; format: cell-based; conditions: Homo sapiens, A549, compound concentration 10^−5 M, A-549 cells cultured 72 hours, OD560, read-out: Inhibitory rates on tumor cell growth (%)
# Protocol: as §1
Molecule,Inhibitory rates on tumor cell growth (%) [1],inhibition at 10 µM [2]
"3,7,9-trimethyl-8-(2-carboxyethyl) -2-(2-p-toluenesulfoethyl)-Dipyrrolidene-1-one [Compound 1f]",23.5%,–
"9-tert-butyloxycarbonyl-3,7-dimethyl-8-(2-methoxycarbonyl ethyl)-2-(2-p-tolylene sulfonyl group ethyl)-dipyrrolomethen-1-one [Compound 1b]",57.0%,–
"COC(=O)CCc1c(C)[nH]c(/C=C2\NC(=O)C(CC[S+]([O-])c3ccc(C)cc3)=C2C)c1C (stereo not drawn) [Compound 1e, 3,7,9-trimethyl-8-(2-methoxycarbonylethyl)-2-(2-p-tolylenesulfonylgroupethyl)-dipyrrolidone]",–,63.4%
"COC(=O)CCc1c(C(=O)OC(C)(C)C)[nH]c(C=C2NC(=O)C(CCS(=O)(=O)c3ccc(C)cc3)=C2C)c1C [Compound 1c, 9-tert-butyloxycarbonyl-3,7-dimethyl-8-(2-methoxycarbonylethyl)-2-(2-nenenebap-toluenesulfonylethyl)-dipyrrolomethen-1-one]",34.4%,–
"COC(=O)CCc1c(C)[nH]c(C=C2NC(=O)C(CCS(=O)(=O)c3ccc(C)cc3)=C2C)c1C [Compound 1i, 3,7,9-trimethyl-8-(2-methoxycarbonylethyl)-2-(2-nenenebap-toluenesulfonylethyl)-dipyrrolomethen-1-one]",28.4%,–
"3,7,9-trimethyl-8-(2-methoxycarbonyl ethyl)-2-(2-p-tolylene sulfonyl group ethyl)-dipyrrolidone [Compound 1h]",11.7%,–
"9-tert butoxycarbonyl-2,7-dimethyl-8-(2-methoxycarbonylethyl)-3-(2-p-toluenesulfoethyl)-dipyrrolidene-1-one [Compound 1a]",72.3%,–
"3,7-dimethyl-8-(2-ethoxycarbonylethyl) -2-(2-p-toluenesulfoethyl)-dipyrrolidene-1-one [Compound 1g]",35.6%,–
"COC(=O)CCc1c(C)[nH]c(/C=C2\NC(=O)C(CCSc3ccc(C)cc3)=C2C)c1C [Compound 1d, 3,7,9-trimethyl-8-(2-methoxycarbonylethyl) -2-(2-p-toluenesulfoethyl)-dipyrrolidene-1-one]",–,37.8%
